Data as given in ChEMBL document CHEMBL5724914, “Linking interpersonal differences in gut microbiota composition and drug biotransformation activity” (2024).

Columns and labels:
[1] = (§1) The drug is tested on Z-011 corresponding to mouse gut metagenome with ENA study accession number: PRJEB37062 and ENA sample accession number: ERS12561811 for biotransformation under anaerobic condition. The drug concentrations were measured over 9 timepoints collected between 0 and 24 hours of incubation by liquid-chromatography-coupled mass spectrometry (LC–MS); conditions: 2 µM
[2] = as §1, with “Z-019” for “Z-011”, “rat” for “mouse”, “ERS12561818” for “ERS12561811”; conditions: 2 µM
[3] = as §1, with “Z-028” for “Z-011”, “ERS12561827” for “ERS12561811”; conditions: 2 µM
[4] = as §1, with “Z-004” for “Z-011”, “to” for “to mouse gut”, “ERS12561804” for “ERS12561811”; conditions: 2 µM
[5] = human gut metagenome, 24 h, 2 µM
[6] = as §1, with “WLS-240” for “Z-011”, “human” for “mouse”, “ERS12561773” for “ERS12561811”; conditions: 2 µM
[7] = human gut metagenome, 24 h, 2 µM; remark: listed apart in the source
[8] = human gut metagenome, 24 h, 2 µM; remark: listed apart in the source
[9] = as §1, with “Z-010” for “Z-011”, “to” for “to mouse gut”, “ERS12561810” for “ERS12561811”; conditions: 2 µM
[10] = as §1, with “Z-030” for “Z-011”, “ERS12561829” for “ERS12561811”; conditions: 2 µM
[11] = as §1, with “WLS-098” for “Z-011”, “human” for “mouse”, “ERS12561754” for “ERS12561811”; conditions: 2 µM
[12] = human gut metagenome, 24 h, 2 µM; remark: listed apart in the source
[13] = as §1, with “Z-016” for “Z-011”, “ERS12561815” for “ERS12561811”; conditions: 2 µM
[14] = human gut metagenome, 24 h, 2 µM; remark: listed apart in the source
[15] = human gut metagenome, 24 h, 2 µM; remark: listed apart in the source
[16] = as §1, with “Z-027” for “Z-011”, “to” for “to mouse gut”, “ERS12561826” for “ERS12561811”; conditions: 2 µM
[17] = human gut metagenome, 24 h, 2 µM; remark: listed apart in the source
[18] = human gut metagenome, 24 h, 2 µM; remark: listed apart in the source
[19] = human gut metagenome, 24 h, 2 µM; remark: listed apart in the source
[20] = as §1, with “WLS-038” for “Z-011”, “human” for “mouse”, “ERS12561745” for “ERS12561811”; conditions: 2 µM
Also: call rule not given here.

SMILES	Bacterial Biotransformation [1]	Bacterial Biotransformation [2]	Bacterial Biotransformation [3]	Bacterial Biotransformation [4]	Bacterial Biotransformation [5]	Bacterial Biotransformation [6]	Bacterial Biotransformation [7]	Bacterial Biotransformation [8]	Bacterial Biotransformation [9]	Bacterial Biotransformation [10]	Bacterial Biotransformation [11]	Bacterial Biotransformation [12]	Bacterial Biotransformation [13]	Bacterial Biotransformation [14]	Bacterial Biotransformation [15]	Bacterial Biotransformation [16]	Bacterial Biotransformation [17]	Bacterial Biotransformation [18]	Bacterial Biotransformation [19]	Bacterial Biotransformation [20]
COc1cc(NC(C)CCCN)c2ncccc2c1.O=P(O)(O)O.O=P(O)(O)O (stereo not given) [PRIMAQUINE PHOSPHATE]	Compound NOT metabolized	Compound NOT metabolized	Compound NOT metabolized	Compound NOT metabolized	Compound NOT metabolized	Compound metabolized	Compound NOT metabolized	Compound NOT metabolized	Compound NOT metabolized	Compound NOT metabolized	Compound metabolized	Compound NOT metabolized	Compound metabolized	Compound metabolized	Compound metabolized	Compound NOT metabolized	Compound NOT metabolized	Compound NOT metabolized	Compound NOT metabolized	Compound NOT metabolized
C=C[C@H]1CN2CC[C@H]1C[C@H]2[C@H](O)c1ccnc2ccc(OC)cc12.C=C[C@H]1CN2CC[C@H]1C[C@H]2[C@H](O)c1ccnc2ccc(OC)cc12.O.O.O=S(=O)(O)O [QUININE SULFATE]	Compound NOT metabolized	Compound NOT metabolized	Compound NOT metabolized	Compound NOT metabolized	Compound NOT metabolized	Compound metabolized	Compound metabolized	Compound metabolized	Compound metabolized	Compound NOT metabolized	Compound metabolized	Compound NOT metabolized	Compound NOT metabolized	Compound NOT metabolized	Compound NOT metabolized	Compound NOT metabolized	Compound metabolized	Compound NOT metabolized	Compound metabolized	Compound NOT metabolized
CCN(C)C(=O)Oc1cccc([C@H](C)N(C)C)c1.O=C(O)C(O)C(O)C(=O)O [RIVASTIGMINE TARTRATE]	Compound NOT metabolized	Compound NOT metabolized	Compound NOT metabolized	Compound NOT metabolized	Compound NOT metabolized	Compound metabolized	Compound NOT metabolized	Compound metabolized	Compound NOT metabolized	Compound NOT metabolized	Compound NOT metabolized	Compound NOT metabolized	Compound NOT metabolized	Compound NOT metabolized	Compound NOT metabolized	Compound NOT metabolized	Compound metabolized	Compound NOT metabolized	Compound NOT metabolized	Compound metabolized

Next, values leading:

Bacterial Biotransformation [1]	Bacterial Biotransformation [2]	Bacterial Biotransformation [3]	Bacterial Biotransformation [4]	Bacterial Biotransformation [5]	Bacterial Biotransformation [6]	Bacterial Biotransformation [7]	Bacterial Biotransformation [8]	Bacterial Biotransformation [9]	Bacterial Biotransformation [10]	Bacterial Biotransformation [11]	Bacterial Biotransformation [12]	Bacterial Biotransformation [13]	Bacterial Biotransformation [14]	Bacterial Biotransformation [15]	Bacterial Biotransformation [16]	Bacterial Biotransformation [17]	Bacterial Biotransformation [18]	Bacterial Biotransformation [19]	Bacterial Biotransformation [20]	SMILES
Compound NOT metabolized	Compound NOT metabolized	Compound NOT metabolized	Compound NOT metabolized	Compound NOT metabolized	Compound NOT metabolized	Compound NOT metabolized	Compound NOT metabolized	Compound NOT metabolized	Compound NOT metabolized	Compound NOT metabolized	Compound metabolized	Compound NOT metabolized	Compound metabolized	Compound metabolized	Compound NOT metabolized	Compound NOT metabolized	Compound NOT metabolized	Compound NOT metabolized	Compound NOT metabolized	O=C(NC(Cc1cc(=O)[nH]c2ccccc12)C(=O)O)c1ccc(Cl)cc1 (stereo not given) [REBAMIPIDE]
Compound NOT metabolized	Compound NOT metabolized	Compound metabolized	Compound metabolized	Compound metabolized	Compound metabolized	Compound metabolized	Compound metabolized	Compound metabolized	Compound NOT metabolized	Compound metabolized	Compound metabolized	Compound metabolized	Compound metabolized	Compound metabolized	Compound metabolized	Compound metabolized	Compound metabolized	Compound metabolized	Compound metabolized	CCOc1cc(CC(=O)N[C@@H](CC(C)C)c2ccccc2N2CCCCC2)ccc1C(=O)O [REPAGLINIDE]
Compound NOT metabolized	Compound NOT metabolized	Compound NOT metabolized	Compound NOT metabolized	Compound NOT metabolized	Compound NOT metabolized	Compound NOT metabolized	Compound NOT metabolized	Compound NOT metabolized	Compound NOT metabolized	Compound NOT metabolized	Compound NOT metabolized	Compound NOT metabolized	Compound NOT metabolized	Compound NOT metabolized	Compound NOT metabolized	Compound NOT metabolized	Compound NOT metabolized	Compound NOT metabolized	Compound NOT metabolized	CC(N)C12CC3CC(CC(C3)C1)C2 (stereo not given) [RIMANTADINE]
Compound NOT metabolized	Compound NOT metabolized	Compound NOT metabolized	Compound NOT metabolized	Compound NOT metabolized	Compound NOT metabolized	Compound metabolized	Compound NOT metabolized	Compound NOT metabolized	Compound NOT metabolized	Compound metabolized	Compound NOT metabolized	Compound NOT metabolized	Compound NOT metabolized	Compound NOT metabolized	Compound NOT metabolized	Compound NOT metabolized	Compound NOT metabolized	Compound NOT metabolized	Compound NOT metabolized	CCCN(CCC)CCc1cccc2c1CC(=O)N2 [ROPINIROLE]
Compound metabolized	Compound NOT metabolized	Compound metabolized	Compound metabolized	Compound metabolized	Compound metabolized	Compound metabolized	Compound metabolized	Compound metabolized	Compound NOT metabolized	Compound metabolized	Compound metabolized	Compound metabolized	Compound metabolized	Compound metabolized	Compound metabolized	Compound metabolized	Compound metabolized	Compound metabolized	Compound metabolized	CC(=O)OCC(=O)NCCCOc1cccc(CN2CCCCC2)c1 [ROXATIDINE ACETATE]
